What was measured:
db/db mice [1] = test: Glucose tolerance test (OTGG) in db/db mice after 14 days of administration; type: in vivo, mouse; settings: n = 10; for Blood glucose in glucose tolerance test, average value, 15 min: 15 min after oral 2 g/kg glucose; for Blood glucose in glucose tolerance test, average value, 30 min: 30 min after oral 2 g/kg glucose; for Blood glucose in glucose tolerance test, average value, 60 min: 60 min after oral 2 g/kg glucose; for Blood glucose in glucose tolerance test, average value, 120 min: 120 min after oral 2 g/kg glucose; for Glucose tolerance test AUC, average value: oral 2 g/kg glucose, 0-120 min; for Blood glucose in glucose tolerance test, average value, 0 min: overnight fast, before oral 2 g/kg glucose (0 min)
Experimental: (§1) The route of administration was oral, the dose was 20 mg/kg in the administration group and 5 mg/kg in the control group, the frequency of administration was once a day, and the administration period was 14 days. […] On days 0, 3, 6, 9, 12, and 14, after fasting for 6 hours after administration, blood was collected from the tail vein and fasting blood glucose levels was measured by a blood glucose meter and recorded.
After 14 days of administration, the animals were fasted overnight (<10 hours), and orally given 2 g/kg of glucose on the next day. Blood was collected from the tail vein at the 0 (pre-administration or fasting blood glucose level), 15, 30, 60 and 120 minutes after administration, respectively, and blood glucose levels were then measured by blood glucose meter and recorded.

[2] = target: T1, RXR/PPAR-6 heterodimer (PPARδ) (Homo sapiens, UniProt Q03181); test: PPARδ in vitro reporter gene assay (pGL3-PPRE reporter, PPARδ and RXR plasmids) in L-02 cells; type: cell-based; settings: 24 h after compound addition, luciferase corrected by GFP, read-out: EC50 (semi-activating activity) activating PPAR-6
T1 construct: expressed in transfected cells; host or cells: L-02
T1 sequence (Q03181 1-441): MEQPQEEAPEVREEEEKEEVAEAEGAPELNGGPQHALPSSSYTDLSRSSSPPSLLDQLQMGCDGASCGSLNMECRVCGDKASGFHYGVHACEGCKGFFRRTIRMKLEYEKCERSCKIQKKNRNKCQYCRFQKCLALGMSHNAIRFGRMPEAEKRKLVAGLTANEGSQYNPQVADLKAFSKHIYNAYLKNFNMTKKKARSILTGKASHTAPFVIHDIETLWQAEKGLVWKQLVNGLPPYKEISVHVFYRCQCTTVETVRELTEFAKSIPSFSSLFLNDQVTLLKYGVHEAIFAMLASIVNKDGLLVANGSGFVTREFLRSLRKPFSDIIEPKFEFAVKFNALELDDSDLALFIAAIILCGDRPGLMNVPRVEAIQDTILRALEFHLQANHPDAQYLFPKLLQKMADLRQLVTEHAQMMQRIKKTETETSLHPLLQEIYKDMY
T1 sequence (P19793 1-462 partner): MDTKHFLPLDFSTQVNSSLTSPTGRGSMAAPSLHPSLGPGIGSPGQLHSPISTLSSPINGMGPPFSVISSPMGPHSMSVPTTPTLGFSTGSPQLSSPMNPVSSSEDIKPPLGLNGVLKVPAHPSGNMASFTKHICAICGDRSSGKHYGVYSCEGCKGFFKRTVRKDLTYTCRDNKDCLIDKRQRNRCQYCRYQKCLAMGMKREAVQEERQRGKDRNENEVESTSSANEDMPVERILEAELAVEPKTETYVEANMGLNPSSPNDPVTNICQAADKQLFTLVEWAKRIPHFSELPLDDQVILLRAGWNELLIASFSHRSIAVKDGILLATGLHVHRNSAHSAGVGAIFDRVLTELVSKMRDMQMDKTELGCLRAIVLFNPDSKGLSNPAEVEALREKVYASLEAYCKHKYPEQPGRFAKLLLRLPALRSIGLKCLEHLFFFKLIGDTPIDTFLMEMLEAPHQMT
Experimental: The PPARδ reporter gene detection system comprises a pGL3-PPRE fluorescent reporter gene plasmid (PPRE enhancer element was inserted into the upstream of the promoter), PPARδ expression plasmid, RXR expression plasmid, and a green fluorescent protein GFP expression plasmid.
(§2) The above plasmids were co-transfected (Fugene 6.0 transfection reagent) into human hepatoma cell line L-02. 48 hours after transfection, different concentrations of test compounds were added. 24 hours after administration, the cells were treated with a luciferase assay kit (Promega E1910) and the fluorescence intensity of GFP (wavelength 485-527 nm) and luciferase substrate (wavelength 562 nm) were detected using a fluorescence detector (Fluoroskan Ascent FL), respectively. The GFP signal is used as an internal reference to correct the detected luciferase substrate signal, and a relative reporter activation intensity was obtained by comparing the above corrected signal to the blank control (without treatment of the compounds). The semi-activating activity (EC50) of the test compound was calculated from concentration gradient data.

human PPARα = target: T2, human PPARα (Homo sapiens, UniProt Q07869); test: PPARα in vitro reporter gene assay (PPRE-luciferase) in L-02 cells; type: cell-based; settings: 24 h after compound addition, luciferase corrected by GFP, read-out: EC50 (semi-activating activity) activating PPARα
T2 construct: expressed in transfected cells; host or cells: L-02
T2 sequence (Q07869 1-468): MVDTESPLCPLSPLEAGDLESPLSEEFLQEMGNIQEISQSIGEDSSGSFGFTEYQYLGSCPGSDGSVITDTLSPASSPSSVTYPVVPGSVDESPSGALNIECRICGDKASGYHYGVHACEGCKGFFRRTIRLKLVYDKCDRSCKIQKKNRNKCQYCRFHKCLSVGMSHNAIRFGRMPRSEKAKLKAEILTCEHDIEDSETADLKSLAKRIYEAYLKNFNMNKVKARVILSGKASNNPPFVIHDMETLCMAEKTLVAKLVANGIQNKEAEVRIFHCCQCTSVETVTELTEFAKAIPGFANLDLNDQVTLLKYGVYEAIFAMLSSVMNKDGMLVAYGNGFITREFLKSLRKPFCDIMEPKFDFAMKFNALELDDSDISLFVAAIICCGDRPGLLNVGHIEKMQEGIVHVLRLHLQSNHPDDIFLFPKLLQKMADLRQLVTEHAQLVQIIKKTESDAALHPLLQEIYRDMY
Experimental: The PPARα reporter gene detection system comprises a pCDNA3.1 luciferase expression plasmid (PPRE enhancer element was inserted into the upstream of the promoter), a green fluorescent protein GFP expression plasmid, and a human PPARα expression plasmid.
as §2, with “Ascent FL)” for “Ascent FL),”, “signal was” for “signal is”

db/db mice [3] = test: Fasting blood glucose in db/db mice during 14 days of oral administration; type: in vivo, mouse; settings: oral once a day, enantiomers 20 mg/kg, rosiglitazone 5 mg/kg, 6 h fasting; for Fasting blood glucose, average value, Day 0: Day 0, n = 10; for Fasting blood glucose, average value, Day 3: Day 3, n = 10; for Fasting blood glucose, average value, Day 6: Day 6, n = 10; for Fasting blood glucose, average value, Day 9: Day 9, n = 10; for Fasting blood glucose, average value, Day 12: Day 12, n = 10; for Fasting blood glucose, average value, Day 14: Day 14, n = 10
Experimental: as §1

RXR/PPARγ heterodimer = target: T3, RXR/PPARγ heterodimer (Homo sapiens, UniProt P37231); test: PPARγ in vitro reporter gene assay (pACOX reporter, PPARγ and RXR plasmids) in L-02 cells; type: cell-based; settings: 24 h after compound addition, luciferase corrected by GFP, read-out: EC50 (semi-activating activity) activating PPARγ
T3 construct: expressed in transfected cells; host or cells: L-02
T3 sequence (P37231 1-505): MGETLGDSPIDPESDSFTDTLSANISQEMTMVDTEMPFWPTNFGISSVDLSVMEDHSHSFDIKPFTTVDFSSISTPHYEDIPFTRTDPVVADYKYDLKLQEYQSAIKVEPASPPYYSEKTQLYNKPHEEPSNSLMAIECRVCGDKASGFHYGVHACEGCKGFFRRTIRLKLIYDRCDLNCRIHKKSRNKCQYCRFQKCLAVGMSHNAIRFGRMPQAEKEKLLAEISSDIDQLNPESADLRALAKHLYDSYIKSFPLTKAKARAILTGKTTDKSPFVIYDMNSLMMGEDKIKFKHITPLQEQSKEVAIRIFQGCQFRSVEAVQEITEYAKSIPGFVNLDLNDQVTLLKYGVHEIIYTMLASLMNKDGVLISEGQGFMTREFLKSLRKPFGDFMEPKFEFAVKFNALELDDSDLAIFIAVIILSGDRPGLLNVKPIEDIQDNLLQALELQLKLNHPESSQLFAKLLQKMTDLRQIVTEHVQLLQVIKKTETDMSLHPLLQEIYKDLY
T3 sequence (P19793 1-462 partner): T1 sequence (P19793 1-462 partner)
Experimental: The PPARγ reporter gene detection system comprises a pACOX fluorescent reporter gene plasmid (the promoter comprises PPRE sequence), PPARγ expression plasmid, RXR expression plasmid, and a green fluorescent protein GFP expression plasmid.
as §2, with “signal was” for “signal is”

With `O=C(c1ccc(F)cc1)c1ccccc1NC(Cc1ccc(OCCn2c3ccccc3c3ccccc32)cc1)C(=O)O` (single isomer, unassigned; (+)) [Enantiomer 2, (+)-2-[(2-(4-fluorobenzoyl)phenyl)amino]-3-[(4-(2-carbazole-ethoxy)phenyl)]propionic acid] the “Blood glucose in glucose tolerance test, average value, 15 min” value (from here on “Blood glucose … 15 min”) (db/db mice [1]) was 31.87, the “Blood glucose in glucose tolerance test, average value, 30 min” value (shortened to “Blood glucose … 30 min”) (db/db mice [1]) was 33.3 and the “Blood glucose in glucose tolerance test, average value, 60 min” value (“Blood glucose … 60 min” below) (db/db mice [1]) was 30.94. The “Blood glucose in glucose tolerance test, average value, 120 min” value (from here on “Blood glucose … 120 min”) (db/db mice [1]) was 25.75, the “Glucose tolerance test AUC, average value” (db/db mice [1]) was 59.16 and the “Blood glucose in glucose tolerance test, average value, 0 min” value (“Blood glucose … average value, 0 min” below) (db/db mice [1]) was 17.18. For the same molecule, the EC50 [2] was > 10000 nM, the EC50 (human PPARα) was 5380 nM and the “Fasting blood glucose, average value, Day 0” value (from here on “Fasting blood glucose … Day 0”) (db/db mice [3]) was 18.86. The “Fasting blood glucose, average value, Day 3” value (from here on “Fasting blood glucose … Day 3”) (db/db mice [3]) was 23.99, the “Fasting blood glucose, average value, Day 6” value (from here on “Fasting blood glucose … Day 6”) (db/db mice [3]) was 20.03 and the “Fasting blood glucose, average value, Day 9” value (from here on “Fasting blood glucose … Day 9”) (db/db mice [3]) was 26.01. For the same molecule, the “Fasting blood glucose, average value, Day 12” value (from here on “Fasting blood glucose … Day 12”) (db/db mice [3]) was 26.44, the “Fasting blood glucose, average value, Day 14” value (shortened to “Fasting blood glucose … Day 14”) (db/db mice [3]) was 17.18 and the EC50 (RXR/PPARγ heterodimer) was 2710 nM.

In the case of `O=C(c1ccc(F)cc1)c1ccccc1NC(Cc1ccc(OCCn2c3ccccc3c3ccccc32)cc1)C(=O)O` (single isomer, unassigned; (-)) [Enantiomer 1, (−)-2-[(2-(4-fluorobenzoyl)phenyl)amino]-3-[(4-(2-carbazole-ethoxy)phenyl)]propionic acid], the “Blood glucose … 15 min” value (db/db mice [1]) is reported as 28.02, the “Blood glucose … 30 min” value (db/db mice [1]) is reported as 32.26 and the “Blood glucose … 60 min” value (db/db mice [1]) is reported as 26.6. The “Blood glucose … 120 min” value (db/db mice [1]) was 14.69, the “Glucose tolerance test AUC, average value” (db/db mice [1]) was 47.77 and the “Blood glucose … average value, 0 min” value (db/db mice [1]) was 10.98. The EC50 [2] was 1930 nM, the EC50 (human PPARα) was 1140 nM and the “Fasting blood glucose … Day 0” value (db/db mice [3]) was 18.43. For the same molecule, the “Fasting blood glucose … Day 3” value (db/db mice [3]) was 18.2, the “Fasting blood glucose … Day 6” value (db/db mice [3]) was 14.7 and the “Fasting blood glucose … Day 9” value (db/db mice [3]) was 18.14. The “Fasting blood glucose … Day 12” value (db/db mice [3]) was 16.18, the “Fasting blood glucose … Day 14” value (db/db mice [3]) was 10.98 and the EC50 (RXR/PPARγ heterodimer) was 76 nM.

In the case of `CN(CCOc1ccc(CC2SC(=O)NC2=O)cc1)c1ccccn1` (centres unmarked) [rosiglitazone, reference compound], the “Blood glucose … 15 min” value (db/db mice [1]) is reported as 28.11, the “Blood glucose … 30 min” value (db/db mice [1]) is reported as 31.22 and the “Blood glucose … 60 min” value (db/db mice [1]) is reported as 25.08. For the same molecule, the “Blood glucose … 120 min” value (db/db mice [1]) was 13.61, the “Blood glucose … average value, 0 min” value (db/db mice [1]) was 11.29 and the “Fasting blood glucose … Day 0” value (db/db mice [3]) was 19.09. For the same molecule, the “Fasting blood glucose … Day 3” value (db/db mice [3]) was 13.58, the “Fasting blood glucose … Day 6” value (db/db mice [3]) was 13.8 and the “Fasting blood glucose … Day 9” value (db/db mice [3]) was 15.05. The “Fasting blood glucose … Day 12” value (db/db mice [3]) was 14.44 and the “Fasting blood glucose … Day 14” value (db/db mice [3]) was 11.29.
